Experimental data reported in PMC2895947 (Neuropsychopharmacology : official publication of the …, 2010).

What was measured:
FAAH−/− and FAAH+/+ mice [1] = assay: Rimonabant-precipitated withdrawal; assay type: in vivo; conditions: after subchronic 50 mg/kg twice daily 5.5 days; rimonabant 10 mg/kg i.p.
CB1 receptor [2] = target: T1, CB1 receptor (Mus musculus, UniProt P47746); assay type: biochemical, mice
CB1 receptor [3] = target: T1, CB1 receptor; assay: [3H]WIN55,212-2 autoradiography in brain sections after subchronic treatment; assay type: binding; conditions: FAAH−/− mice treated subchronically; 1 nM radioligand; mean ± SEM
CB1 receptor [4] = target: T1, CB1 receptor; assay: Agonist-stimulated [35S]GTPγS binding in spinal cord membranes; assay type: biochemical, mice
FAAH−/− and FAAH+/+ mice [5] = conditions: FAAH−/− mice ref Cravatt et al., 2001; cited from earlier work
[6] = THC blood and brain levels, single bolus vs cumulative dosing; assay type: in vivo; conditions: C57Bl/6J mice, mean ± SEM
FAAH−/− and FAAH+/+ mice [7] = assay: Tail withdrawal; assay type: in vivo
FAAH−/− and FAAH+/+ mice [8] = assay: Bar test for catalepsy, cumulative dose-response; assay type: in vivo
FAAH−/− and FAAH+/+ mice [9] = assay: Hypothermia; assay type: in vivo
[10] = FAAH−/− mice treated subchronically, WIN55,212-2 10 μM, mean ± SEM
[11] = FAAH+/+ mice, naive, cumulative dosing
[12] = FAAH−/− mice, naive, cumulative dosing
[13] = Table 3, FAAH−/− mice, subchronic AEA
[14] = Table 3, FAAH−/− mice, subchronic THC
[15] = Table 3, FAAH−/− mice, subchronic vehicle

T1 sequence (P47746 whole entry): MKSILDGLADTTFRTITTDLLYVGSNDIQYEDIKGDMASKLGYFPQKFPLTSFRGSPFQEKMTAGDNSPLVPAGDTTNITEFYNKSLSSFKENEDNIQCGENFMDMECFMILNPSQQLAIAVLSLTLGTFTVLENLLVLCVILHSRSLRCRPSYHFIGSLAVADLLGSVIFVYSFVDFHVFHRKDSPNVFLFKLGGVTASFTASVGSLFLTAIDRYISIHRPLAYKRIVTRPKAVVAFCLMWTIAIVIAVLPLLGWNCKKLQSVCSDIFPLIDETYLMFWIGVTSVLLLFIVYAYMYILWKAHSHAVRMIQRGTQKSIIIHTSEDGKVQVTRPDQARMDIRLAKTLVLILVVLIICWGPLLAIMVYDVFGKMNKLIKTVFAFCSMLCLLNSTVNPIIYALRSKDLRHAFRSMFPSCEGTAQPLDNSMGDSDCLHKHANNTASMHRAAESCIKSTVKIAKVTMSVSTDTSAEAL

In the case of CCCCC/C=C\C/C=C\C/C=C\C/C=C\CCCC(=O)NCCO [AEA, N-arachidonoyl ethanolamine], the “Rimonabant precipitated head twitches / headshakes” value (FAAH−/− and FAAH+/+ mice [1]) is reported as “no changes”, the “WIN55,212-2-stimulated [35S]GTPγS binding vs vehicle control (study 1, Figure 5)” value (CB1 receptor [2]; FAAH+/+ and FAAH−/− mice, caudate putamen, hippocampus, cerebellum) is reported as “not different from vehicle control” and the “Net WIN55,212-2-stimulated [35S]GTPγS binding, Caudate-Putamen” value (CB1 receptor [2]; [10]) is reported as 152 ± 28 nCi/g. For the same compound, the “Net WIN55,212-2-stimulated [35S]GTPγS binding, Cerebellum” value (CB1 receptor [2]; [10]) was 178 ± 23 nCi/g, the “Net WIN55,212-2-stimulated [35S]GTPγS binding, Globus Pallidus” value (CB1 receptor [2]; [10]) was 639 ± 60 nCi/g and the “Net WIN55,212-2-stimulated [35S]GTPγS binding, Hippocampus” value (CB1 receptor [2]; [10]) was 132 ± 24 nCi/g. For the same compound, the “Net WIN55,212-2-stimulated [35S]GTPγS binding, PAG” value (CB1 receptor [2]; [10]) was 79 ± 19 nCi/g, the “Net WIN55,212-2-stimulated [35S]GTPγS binding, Substantia Nigra” value (CB1 receptor [2]; [10]) was 592 ± 49 nCi/g and the “Specific [3H]WIN55,212-2 binding, Caudate-Putamen” value (CB1 receptor [3]) was 0.95 ± 0.09 pCi/g. The “Specific [3H]WIN55,212-2 binding, Cerebellum” value (CB1 receptor [3]) was 1.69 ± 0.18 pCi/g, the “Specific [3H]WIN55,212-2 binding, Globus Pallidus” value (CB1 receptor [3]) was 2.31 ± 0.18 pCi/g and the “Specific [3H]WIN55,212-2 binding, Hippocampus” value (CB1 receptor [3]) was 0.88 ± 0.06 pCi/g. For the same compound, the “Specific [3H]WIN55,212-2 binding, PAG” value (CB1 receptor [3]) was 0.57 ± 0.06 pCi/g, the “Specific [3H]WIN55,212-2 binding, Substantia Nigra” value (CB1 receptor [3]) was 3.11 ± 0.29 pCi/g and the “Emax of agonist-stimulated [35S]GTPγS binding” value (“Emax of agonist-stimulated” below) (CB1 receptor [4]; spinal cord membranes from AEA-treated FAAH−/− mice) was 35 ± 3.3 % Stim. The “Emax as percent of that obtained in vehicle-treated mice” value (CB1 receptor [4]; spinal cord membranes from AEA-treated mice) was 104%, the “Emax of agonist-stimulated” value (CB1 receptor [4]; spinal cord membranes from THC-treated FAAH−/− mice) was 25 ± 2.3 % Stim and the “Emax as percent of that obtained in vehicle-treated mice” value (CB1 receptor [4]; spinal cord membranes from THC-treated mice) was 75%. The “Emax of agonist-stimulated” value (CB1 receptor [4]; spinal cord membranes from vehicle-treated FAAH−/− mice) was 34 ± 1.6 % Stim and the “Persistence of antinociception, catalepsy, locomotor inhibition and hypothermia” value (FAAH−/− and FAAH+/+ mice [5]) was 6 to 8 h.

For CCCCCc1cc(O)c2c(c1)OC(C)(C)[C@@H]1CCC(C)=C[C@@H]21 [THC, Δ^9-tetrahydrocannabinol], the “Brain THC level, single bolus” value ([6]; THC 3 mg/kg) was 77 ± 5 ng/mL, the “Brain THC level, single bolus” value ([6]; THC 10 mg/kg) was 212 ± 19 ng/mL and the “Brain THC level, cumulative dosing” value ([6]; THC 30 mg/kg cumulative) was 641 ± 134 ng/mL. The “Brain THC level, single bolus” value ([6]; THC 30 mg/kg) was 520 ± 79 ng/mL, the “Brain THC level, cumulative dosing” value ([6]; THC 56 mg/kg cumulative) was 1294 ± 178 ng/mL and the “Brain THC level, single bolus” value ([6]; THC 56 mg/kg) was 1072 ± 156 ng/mL. The “Antinociception ED50 (95% CI)” value (FAAH−/− and FAAH+/+ mice [7]; [11]) was 19 (14-26) mg/kg, the “Antinociception ED50 (95% CI)” value (FAAH−/− and FAAH+/+ mice [7]; [12]) was 22 (17-30) mg/kg and the “Antinociception maximum effect ± SEM” value (FAAH−/− and FAAH+/+ mice [7]; FAAH−/− mice, subchronic THC 50 mg/kg twice daily 5.5 days, @ 300 mg/kg) was 25 + 4%MPE @ 300 mg/kg. The “Antinociception ED50 (95% CI)” value (FAAH−/− and FAAH+/+ mice [7]; [13]) was 55 (44-69) mg/kg, the “Antinociception ED50 (95% CI)” value (FAAH−/− and FAAH+/+ mice [7]; [14]) was 76 (58-99) mg/kg and the “Antinociception ED50 (95% CI)” value (FAAH−/− and FAAH+/+ mice [7]; [15]) was 20 (16-24) mg/kg. For the same compound, the “Catalepsy ED50 (95% CI)” value (FAAH−/− and FAAH+/+ mice [8]; [11]) was 18 (13-25) mg/kg, the Catalepsy maximum effect (FAAH−/− and FAAH+/+ mice [8]; FAAH+/+ mice, subchronic THC, @ 300 mg/kg) was 62% @ 300 mg/kg and the “Catalepsy ED50 (95% CI)” value (FAAH−/− and FAAH+/+ mice [8]; [12]) was 21 (15-28) mg/kg. For the same compound, the Catalepsy maximum effect (FAAH−/− and FAAH+/+ mice [8]; FAAH−/− mice, subchronic AEA, @ 300 mg/kg) was 25% @ 300 mg/kg, the Catalepsy maximum effect (FAAH−/− and FAAH+/+ mice [8]; FAAH−/− mice, subchronic THC, @ 300 mg/kg) was 67% @ 300 mg/kg and the “Catalepsy ED50 (95% CI)” value (FAAH−/− and FAAH+/+ mice [8]; [13]) was 62 (56-69) mg/kg. The Catalepsy maximum effect (FAAH−/− and FAAH+/+ mice [8]; Table 3, FAAH−/− mice, subchronic THC, @ 150 mg/kg) was 50% @ 150 mg/kg, the “Catalepsy ED50 (95% CI)” value (FAAH−/− and FAAH+/+ mice [8]; [15]) was 16 (13-19) mg/kg and the “Hypothermia ED50 (95% CI)” value (FAAH−/− and FAAH+/+ mice [9]; [11]) was 18 (15-22) mg/kg. For the same compound, the “Hypothermia ED50 (95% CI)” value (FAAH−/− and FAAH+/+ mice [9]; FAAH+/+ mice, subchronic THC) was 109 (62- 190) mg/kg, the “Hypothermia ED50 (95% CI)” value (FAAH−/− and FAAH+/+ mice [9]; [12]) was 22 (16-32) mg/kg and the “Hypothermia ED50 (95% CI)” value (FAAH−/− and FAAH+/+ mice [9]; FAAH−/− mice, subchronic AEA) was 133 (106- 166) mg/kg. The “Hypothermia ED50 (95% CI)” value (FAAH−/− and FAAH+/+ mice [9]; FAAH−/− mice, subchronic THC) was 224 (190- 266) mg/kg, the “Hypothermia ED50 (95% CI)” value (FAAH−/− and FAAH+/+ mice [9]; [13]) was 50 (40-55) mg/kg and the “Hypothermia ED50 (95% CI)” value (FAAH−/− and FAAH+/+ mice [9]; [14]) was 32 (27-38) mg/kg. For the same compound, the “Hypothermia ED50 (95% CI)” value (FAAH−/− and FAAH+/+ mice [9]; [15]) was 17 (15-20) mg/kg and the “Rimonabant precipitated head twitches / headshakes” value (FAAH−/− and FAAH+/+ mice [1]) was “significant increases”.
